Laboratory results as given in paper PMC2655357 (The Febs Journal, 2008).

Target: AaIspE (Aquifex aeolicus, UniProt O67060)
Assay: crystal structure
Format: binding
Details: co-crystallized with 4 mM AMP-PNP and 4 mM CDP; substrate (CDPME) site

Sequence of AaIspE (O67060 whole entry): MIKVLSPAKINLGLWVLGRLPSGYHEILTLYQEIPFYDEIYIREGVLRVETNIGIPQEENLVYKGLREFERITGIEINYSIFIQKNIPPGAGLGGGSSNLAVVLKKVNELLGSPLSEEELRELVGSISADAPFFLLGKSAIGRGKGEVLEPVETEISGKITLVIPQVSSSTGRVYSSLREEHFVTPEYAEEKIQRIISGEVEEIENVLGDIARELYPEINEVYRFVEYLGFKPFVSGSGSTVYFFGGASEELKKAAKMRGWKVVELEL

How did the “crystal structure (complex I, 2.1 Å)” value turn out when `Nc1ccn([C@@H]2O[C@H](COP(=O)(O)OP(=O)(O)O)[C@@H](O)[C@H]2O)c(=O)n1` [CDP] was run?
Its value is “In complex I, CDP displays a single conformation in molecule A and three in molecule B”.
